Experimental data taken from US6875761B2 (Eisai Co., Ltd., priority 1997, dated 2005).
Counter-ions that a name gives are not always drawn.

melting point	SMILES
178 °C	CCN1CCN(c2nc(-c3ccc(N4CCC(O)CC4)cc3)cc3ccccc23)CC1 (as salt: hydrochloride) [Example 97, 1-(4-Ethylpiperazin-1-yl)-3-[4-(4-hydroxypiperidin-1-yl)phenyl]isoquinoline Trihydrochloride]
140 to 142 °C	CC(C)(O)COc1ccc(-c2cc3sccc3c(N3CCN(CCc4ccccc4)CC3)n2)cc1 (as salt: hydrochloride) [Example 297, 6-[4-(2-methyl-2-hydroxypropoxy)phenyl]-4-[4-(2-phenylethyl)piperazin-1-yl]thieno[3,2-c]pyridine]
230 to 232 °C (dec.)	CCN1CCN(c2nc(-c3ccc(S(=O)(=O)CC)cc3)cc3ccsc23)CC1 (as salt: hydrochloride) [Example 450, 7-(4-ethylpiperazin-1-yl)-5-(4-ethanesulfonylphenyl)thieno[2,3-c]pyridine dihydrochloride]
182 to 184 °C (dec.)	CCN1CCN(c2nc(-c3ccc(CC4CCOCC4)cc3)cc3ccccc23)CC1 (as salt: hydrochloride) [Example 399, 1-(4-Ethylpiperazin-1-yl)-3-[4-(tetrahydropyran-4-yl)Methylphenyl]Isoquinoline Dihydrochloride]
160 to 165 °C	CCN1CCN(c2nc(-c3ccc(C(=O)NC4CCCCC4)cc3)cc3ccsc23)CC1 (as salt: hydrochloride) [Example 273, dihydrochloride]
220 to 225 °C	CCCN1CCN(c2nc(-c3ccc(OCCO)cc3)cc3ccccc23)CC1 (as salt: hydrochloride)
119 to 122 °C	CCN1CCN(c2nc(-c3ccc(CCCO)cc3)cc3cccnc23)CC1 (as salt: hydrochloride) [Example 247, 8-(1-ethylpiperazin-4-yl)-6-[4-(3-hydroxypropyl)phenyl]-1,7-naphthyridine Dihydrochloride]
260 °C (dec.)	CCN1CCN(c2nc(C(=O)Nc3ccccc3)cc3ccccc23)CC1 (as salt: hydrochloride) [Example 218, 1-(ethylpiperazin-4-yl)-N-phenyl-3-isoquinolinecarboxamide dihydrochloride]
124 to 125 °C (dec.)	CCCNC(=O)c1ccc(-c2cc3ccccc3c(N3CCN(CC)CC3)n2)cc1F (as salt: hydrochloride) [Example 384, 1-(4-Ethylpiperazin-1-yl)-3-[4-(N-Propylcarbamoyl)-3-Fluorophenyl]Isoquinoline Dihydrochloride]
139 to 141 °C	CCN1CCN(c2nc(-c3ccc(C(=O)CC(C)C)cc3)cc3ccsc23)CC1 (as salt: hydrochloride) [Example 272, 7-(1-ethylpiperazin-4-yl)-5-[4-(3-methylbutanoyl)phenyl]thieno[2,3-c]pyridine dihydrochloride]
173 to 175 °C	CCN1CCN(c2nc(/C=C/c3cncc(N4CCOCC4)n3)cc3ccccc23)CC1 (as salt: oxalate) [Example 216, 3-{(E)-2-[2-(4-morpholinyl)pyrazin-6-yl]ethenyl}-1-(4-ethylpiperazin-1-yl)isoquinoline oxalate]
233 °C (dec.)	CCN1CCN(c2nc(-c3ccc4c(c3)CCC4=O)cc3ccccc23)CC1 (as salt: hydrochloride) [Example 414, 1-(4-ethylpiperazin-1-yl)-3-(1-indanon-5-yl)isoquinoline]
224.5 to 226 °C (dec.)	CCN1CCN(c2nc(-c3ccc(OC)cc3)nc3ccccc23)CC1 (as salt: hydrochloride) [Example 427, 4-(4-ethylpiperazin-1-yl)-2-(4-methoxyphenyl)quinazoline Dihydrochloride]
110 to 112.5 °C (dec.)	CCCC(=O)c1ccc(-c2cc3ccccc3c(N3CCN(CC)CC3)n2)cc1 (as salt: hydrochloride)
101 to 102 °C	CCN1CCN(c2nc(COc3ccc(OC)cc3)cc3ccccc23)CC1 (as salt: hydrochloride) [Example 424, 1-(4-ethylpiperazin-1-yl)-3-(4-methoxyphenoxymethyl)isoquinoline Hydrochloride]
190 to 192 °C	CCN1CCN(c2nc(/C=C(\C)c3cccc(N4CCOCC4)c3)cc3ccccc23)CC1 (as salt: oxalate) [Example 207, 3-{(E)-2-Methyl-2-[3-(4-Morpholinyl)Phenyl]Ethenyl}-1-(4-Ethylpiperazin-1-Yl)Isoquinoline Oxalate]
170 to 172 °C	CCN1CCN(c2nc(-c3ccc(C4=CCOCC4)cc3)cc3ccccc23)CC1 (as salt: hydrochloride) [Example 84, 3-[4-(5,6-Dihydro-2H-pyran-4-yl)phenyl]-1-(4-ethylpiperazin-1-yl)isoquinoline Hydrochloride]
127 to 128 °C	CCN1CCN(c2nc(-c3ccc(OC)cc3)cc3ccoc23)CC1 (as salt: hydrochloride) [Example 467, 7-(4-ethylpiperazin-1-yl)-5-(4-methoxyphenyl)furo[2,3-c]pyridine dihydrochloride]
180 °C	CCN1CCN(c2nc(-c3ccc(N4C[C@@H](C)O[C@@H](C)C4)nc3)cc3ccccc23)CC1 (as salt: hydrochloride) [Example 149, 3-[2-(2,6-dimethylmorpholin-4-yl)pyridin-5-yl]-1-(4-ethylpiperazin-1-yl)isoquinoline trihydrochloride]
193 to 197 °C	CCN1CCN(c2nc(-c3ccc(CN4CCSCC4)cc3)cc3ccccc23)CC1 (as salt: hydrochloride) [Example 94, 3-(4-Thiomorpholinylmethylphenyl)-1-(4-ethylpiperazin-1-yl)isoquinoline Hydrochloride]
163 to 165 °C	COc1ccc(-c2cc3ccccc3c(N3CCN(CCO)CC3)n2)cc1 (as salt: hydrochloride) [Example 242, 1-[4-(2-hydroxyethyl)piperazin-1-yl]-3-(4-methoxyphenyl)isoquinoline Dihydrochloride]
122 to 123 °C	CCN1CCN(c2nc(-c3cccc(OC)c3OC)cc3ccccc23)CC1 (as salt: hydrochloride)
220 °C (dec.)	CCN1CCN(c2nc(/C=C/c3ccccn3)cc3ccccc23)CC1 (as salt: hydrochloride) [Example 209, 1-(1-Ethylpiperazin-4-Yl)-3-[Trans-2-(2-Pyridyl)Ethenyl]Isoquinoline Trihydrochloride]
184 to 186 °C (dec.)	CCN1CCN(c2nc(-c3ccc(CC(C)(C)O)cc3)cc3ccccc23)CC1 (as salt: oxalate) [Example 377, 1-(4-Ethylpiperazin-1-yl)-3-[4-(2-Hydroxy-2-Methylpropyl)Phenyl]Isoquinoline Oxalate]
119 to 120 °C	CCN1CCN(c2nc(-c3ccc(OCCO)c(F)c3)cc3ccccc23)CC1 (as salt: hydrochloride) [Example 369, 1-(4-ethylpiperazin-1-yl)-3-[3-fluoro-4-(2-hydroxyethoxy)phenyl]isoquinoline dihydrochloride]
145 to 152 °C	CCN1CCN(c2nc(-c3ccc(OCCO)cc3)cc3ccoc23)CC1 (as salt: oxalate) [Example 301, 7-(1-Ethylpiperazin-4-yl)-5-[4-(2-hydroxyethoxy)phenyl]furo[2,3-c]pyridine oxalate]
152 to 170 °C	CCN1CCN(c2nc(-c3ccc(OCCO)cc3)cc3cc(F)ccc23)CC1 (as salt: hydrochloride) [Example 223, 1-(4-ethylpiperazin-1-yl)-3-[4-(2-hydroxyethoxy)phenyl]-6-fluoroisoquinoline dihydrochloride]
178 to 179 °C	CCN1CCN(c2nc(-c3ccccc3OC)cc3ccc(OC)cc23)CC1 (as salt: hydrochloride)
160 to 162 °C	COc1ccc(-c2cc3ccccc3c(N(C)CCN(C)C)n2)cc1 (as salt: hydrochloride) [Example 319, 1-{N-[2-(2-dimethylamino)ethyl]-N-methylamino}-3-(4-methoxyphenyl)isoquinoline dihydrochloride]
194 to 197 °C	CCCNS(=O)(=O)Cc1ccc(-c2cc3ccccc3c(N3CCN(CC)CC3)n2)cc1 (as salt: hydrochloride) [Example 81, 3-(4-Propylaminosulfonylmethylphenyl)-1-(4-Ethylpiperazin-1-Yl)Isoquinoline Hydrochloride]

SMILES	melting point
CCN1CCN(c2nc(C#Cc3ncccc3OCCO)cc3ccccc23)CC1 (as salt: hydrochloride) [Example 188, 1-(1-Ethylpiperazin-4-Yl)-3-[3-(2-Hydroxyethoxy)-2-Pyridyl]Ethynylisoquinoline]	153 to 159 °C
CCN1CCN(c2nc(-c3ccccn3)cc3ccccc23)CC1 (as salt: hydrochloride) [Example 123, 1-(4-Ethylpiperazin-1-yl)-3-(2-Pyridyl)Isoquinoline Dihydrochloride]	160 to 162 °C
CCN1CCN(c2nc(Cc3ccccc3)cc3ccccc23)CC1 (as salt: hydrochloride) [Example 419, 1-(4-ethylpiperazin-1-yl)-3-benzylisoquinoline]	118 to 119 °C
CCN1CCN(c2nc(-c3ccc(CCCO)c(OC)c3)cc3ccccc23)CC1 (as salt: hydrochloride) [Example 33, 1-(4-ethylpiperazin-1-yl)-3-[4-(3-hydroxypropyl)-3-methoxyphenyl]isoquinoline hydrochloride]	123 to 124 °C
CCN1CCN(c2nc(C#Cc3ccccn3)cc3ccccc23)CC1 (as salt: oxalate) [Example 179, 1-(1-Ethylpiperazin-4-Yl)-3-(2-Pyridyl)Ethynylisoquinoline Oxalate]	148 to 154 °C
CCN1CCN(c2nc(-c3ccc(C(C)(C)CCO)cc3)cc3ccsc23)CC1 (as salt: hydrochloride) [Example 443, 7-(4-ethylpiperazin-1-yl)-5-[4-(3-hydroxy-1,1-dimethylpropyl)phenyl]thieno[2,3-c]pyridine dihydrochloride]	125.5 to 127.5 °C
CCN1CCN(c2nc(-c3ccc(C(O)CC(C)(C)O)cc3)cc3ccccc23)CC1 (stereo not shown) (as salt: hydrochloride) [Example 25, 3-[4-(1,3-dihydroxy-3-methylbutyl)phenyl]-1-(4-ethylpiperazin-1-yl)isoquinoline]	190 to 192 °C
